Data as given in US20230286973A1, “PROTEIN SECRETION INHIBITORS” (KEZAR LIFE SCIENCES, priority 2020, published 2023).
Read-outs that look alike come from different tables or passages of the source.

Key:
[1] = test system: PD1-ss+10aa/Gaussia Luciferase; assay: Dox-Induced PD1-ss-Gluc Assay; type: cell-based; conditions: 24 hr Dox induction, 293FRT/TO cells, read-out: 24 hr Dox Inducible PD1ssGluc 293FRT/TO: Mean IC50
Procedure, shortened: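 The cell line was made by transfecting Flp-In 293 T-REx cells with a PD1 signal sequence+10aa–Gaussia luciferase fusion under T-REx control and selecting with hygromycin and blasticidin. Cells were seeded, and next day compound plus doxycycline was added at 37 °C, 5% CO2.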

[2] = test system: TNFα-FL/Gaussia Luciferase; assay: Dox Induced TNFα-FL-Gluc Assay; type: cell-based; conditions: for IC50: 24 hr Dox induction, 293FRT/TO cells, read-out: 24 hr Dox Inducible TNFaFLGluc 293FRT/TO: Mean IC50; for 24 hr Dox Inducible TNFaFLGluc 293FRT/TO: TNF/PD1: ratio of TNFaFLGluc IC50 to PD1ssGluc IC50
Procedure, shortened: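 Flp-In 293 T-REx cells stably carrying doxycycline-inducible full-length TNFα (aa 1-233) fused to Gaussia luciferase. Plated the day before, then treated with compound dilutions in doxycycline-containing medium at 37° C, 5% CO2.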

[3] = test system: HER3-ss+4aa/Gaussia Luciferase; assay: Dox-Induced Her3-ss-Gluc Assay; type: cell-based; conditions: 24 hr Dox induction, 293FRT/TO cells, read-out: 24 hr Dox Inducible Her3(ss + 4)Gluc 293FRT/TO: Mean IC50
Procedure, shortened: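 Stable Flp-In 293 T-REx cells carried a doxycycline-inducible HER3 signal sequence (+4 aa) fused to Gaussia luciferase. Cells were plated the day before the assay. Compound dilutions in DMSO/media containing doxycycline were then added, and plates were incubated at 37 °C, 5% CO2.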

[4] = test system: IL-2-FL/Gaussia Luciferase; assay: Dox Induced IL2-FL-Gluc Assay; type: cell-based; conditions: for IC50: 24 hr Dox induction, 293FRT/TO cells, read-out: 24 hr Dox Inducible IL2FLGluc 293FRT/TO: Mean IC50; for 24 hr Dox Inducible IL2FLGluc 293FRT/TO: IL2/PD1: ratio of IL2FLGluc IC50 to PD1ssGluc IC50
Procedure, shortened: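 Stable Flp-In 293 T-REx cells carrying doxycycline-inducible full-length IL-2 (aa 1-153) fused to Gaussia luciferase, plated the day before assay. Compound dilutions added in medium containing doxycycline, incubated at 37 °C, 5% CO2. Undefined stereocentres mean data refer to stereoisomer mixtures.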

[5] = test system: multiple myeloma cell line NCI-H929; assay: H929 Cell Viability Assay; type: cell-based, human; conditions: Homo sapiens, NCI-H929, 48 h, NCI-H929 cells, Celltiter-Glo
Procedure, shortened: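 NCI-H929 cells in RPMI 1640 with 10% FBS were treated with compound dilutions for 48 h at 37° C, 5% CO2. Viability was read by CellTiter-Glo luminescence. Undefined stereocentres denote stereoisomer mixtures.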

[6] = test system: multiple myeloma cell line U266B1; assay: U266 Cell Viability Assay; type: cell-based, human; conditions: Homo sapiens, U-266, 48 h, U266B1 cells, Celltiter-Glo
Procedure, shortened: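 U266B1 multiple myeloma cells in RPMI 1640/10% FBS were treated with compound dilutions for 48 h at 37 °C, 5% CO2. Viability was measured by CellTiter-Glo luminescence; compounds drawn without stereochemistry were tested as stereoisomer mixtures.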

[7] = Liver Microsome Stability Assay (rat); conditions: rat liver microsomes, with NADPH, 1.0 uM compound
Description: (§1) Stability of a compound was assessed in the presence of liver microsomes from various sources—mouse, rat, monkey and human liver microsomes. 1.0 uM compound, 0.4% DMSO in 0.1 M Potassium Phosphate with 1.0 mg/mL liver microsomes, were incubated at 37° C. with or without 1 mM NADPH. The samples were quenched at 0, and 30 minutes.

[8] = Liver Microsome Stability Assay (mouse); conditions: mouse liver microsomes, with NADPH, 1.0 uM compound
Description: as §1

[9] = Liver Microsome Stability Assay (human); conditions: human liver microsomes, with NADPH, 1.0 uM compound
Description: as §1

[10] = Liver Microsome Stability Assay (monkey); conditions: monkey liver microsomes, with NADPH, 1.0 uM compound
Description: as §1

[11] = '<=>' given where both are I.A.

CC(=O)N1CCC[C@H](Oc2ccc(N3CCC[C@@H]3c3csc(NC(=O)c4cccn4Cc4ccnc(F)c4)n3)cc2)C1 [Compound A84, N-(4-((R)-1-(4-(((S)-1-acetylpiperidin-3-yl)oxy)phenyl)pyrrolidin-2-yl)thiazol-2-yl)-1-((2-fluoropyridin-4-yl)methyl)-1H-pyrrole-2-carboxamide]
IC50 [1]: 40.7 nM | IC50 [2]: 310 nM | 24 hr Dox Inducible TNFaFLGluc 293FRT/TO: TNF/PD1 [2]: 7.61 | IC50 [3]: 62.6 nM | IC50 [4]: 87 nM | 24 hr Dox Inducible IL2FLGluc 293FRT/TO: IL2/PD1 [4]: 2.1 | EC50 [5]: 1050 nM | EC50 [6]: > 25000 nM | Liver Microsome Stability (Multiple Species): Rat - % Remaining after 30 min w/NADPH [7]: 2.51% | Liver Microsome Stability (Multiple Species): Mouse - % Remaining after 30 min w/NADPH [8]: 1% | Liver Microsome Stability (Multiple Species): Human - % Remaining after 30 min w/NADPH [9]: 0.5% | Liver Microsome Stability (Multiple Species): Monkey - % Remaining after 30 min w/NADPH [10]: 0.73%

O=C(Nc1nc([C@H]2CCCN2c2ccccc2)cs1)c1cccn1Cc1cccc(Cl)c1 [Compound C122, (R)-1-(3-chlorobenzyl)-N-(4-(1-phenylpyrrolidin-2-yl)thiazol-2-yl)-1H-pyrrole-2-carboxamide]
IC50 ([1]; mean): 1080 nM | IC50 ([2]; mean): > 25000 nM | 24 hr Dox Inducible TNFaFLGluc 293FRT/TO: TNF/PD1 [2, 11]: >23.3 | IC50 ([3]; mean): 1000 nM | IC50 ([4]; mean): 1350 nM | 24 hr Dox Inducible IL2FLGluc 293FRT/TO: IL2/PD1 [4, 11]: 1.3 | EC50 [5]: > 25000 nM | EC50 [6]: > 25000 nM | Liver Microsome Stability (Multiple Species): Rat - % Remaining after 30 min w/NADPH [7]: 52.6% | Liver Microsome Stability (Multiple Species): Mouse - % Remaining after 30 min w/NADPH [8]: 50.6% | Liver Microsome Stability (Multiple Species): Human - % Remaining after 30 min w/NADPH [9]: 75.8% | Liver Microsome Stability (Multiple Species): Monkey - % Remaining after 30 min w/NADPH [10]: 52.2%

O=C(Nc1nc([C@H]2CCCN2c2ccccc2)cs1)c1cccn1Cc1cc(F)nc(F)c1 [Compound A60, (R)-1-((2,6-difluoropyridin-4-yl)methyl)-N-(4-(1-phenylpyrrolidin-2-yl)thiazol-2-yl)-1H-pyrrole-2-carboxamide]
IC50 [1]: 63.8 nM | IC50 [2]: 861 nM | 24 hr Dox Inducible TNFaFLGluc 293FRT/TO: TNF/PD1 [2]: 13.5 | IC50 [3]: 131 nM | IC50 [4]: 186 nM | 24 hr Dox Inducible IL2FLGluc 293FRT/TO: IL2/PD1 [4]: 2.9 | EC50 [5]: 4720 nM | EC50 [6]: > 25000 nM | Liver Microsome Stability (Multiple Species): Rat - % Remaining after 30 min w/NADPH [7]: 19.7% | Liver Microsome Stability (Multiple Species): Mouse - % Remaining after 30 min w/NADPH [8]: 48.3% | Liver Microsome Stability (Multiple Species): Human - % Remaining after 30 min w/NADPH [9]: 13.7% | Liver Microsome Stability (Multiple Species): Monkey - % Remaining after 30 min w/NADPH [10]: 23.8%

NC(=O)CCCCn1cccc1C(=O)Nc1nc([C@H]2CCCN2c2ccccc2)cs1 [Compound C58]
IC50 ([1]; mean): 7880 nM | IC50 ([2]; mean): > 25000 nM | 24 hr Dox Inducible TNFaFLGluc 293FRT/TO: TNF/PD1 [2, 11]: >3.17 | IC50 ([3]; mean): 9100 nM | IC50 ([4]; mean): > 25000 nM | 24 hr Dox Inducible IL2FLGluc 293FRT/TO: IL2/PD1 [4, 11]: 3.2 | EC50 [5]: > 25000 nM | EC50 [6]: > 25000 nM | Liver Microsome Stability (Multiple Species): Rat - % Remaining after 30 min w/NADPH [7]: 34.7% | Liver Microsome Stability (Multiple Species): Mouse - % Remaining after 30 min w/NADPH [8]: 17% | Liver Microsome Stability (Multiple Species): Human - % Remaining after 30 min w/NADPH [9]: 35.7% | Liver Microsome Stability (Multiple Species): Monkey - % Remaining after 30 min w/NADPH [10]: 27.4%

O=C(Nc1nc([C@H]2CCCN2c2ccc(O[C@@H]3CCOC3)cc2)cs1)c1cccn1Cc1ccncc1 [Compound A3, 1-(pyridin-4-ylmethyl)-N-(4-((R)-1-(4-(((R)-tetrahydrofuran-3-yl)oxy)phenyl)pyrrolidin-2-yl)thiazol-2-yl)-1H-pyrrole-2-carboxamide]
IC50 [1]: 15.6 nM | IC50 [2]: 171 nM | 24 hr Dox Inducible TNFaFLGluc 293FRT/TO: TNF/PD1 [2]: 11 | IC50 [3]: 33.5 nM | IC50 [4]: 26 nM | 24 hr Dox Inducible IL2FLGluc 293FRT/TO: IL2/PD1 [4]: 1.7 | EC50 [5]: 530 nM | EC50 [6]: > 25000 nM | Liver Microsome Stability (Multiple Species): Rat - % Remaining after 30 min w/NADPH [7]: 20.1% | Liver Microsome Stability (Multiple Species): Mouse - % Remaining after 30 min w/NADPH [8]: 9% | Liver Microsome Stability (Multiple Species): Human - % Remaining after 30 min w/NADPH [9]: 2.33% | Liver Microsome Stability (Multiple Species): Monkey - % Remaining after 30 min w/NADPH [10]: 0.62%

CC(C)n1cnc(-c2ccccc2-c2csc(NC(=O)c3cccn3Cc3ccnc(F)c3)n2)c1 [Compound A169, 1-((2-fluoropyridin-4-yl)methyl)-N-(4-(2-(1-isopropyl-1H-imidazol-4-yl)phenyl)thiazol-2-yl)-1H-pyrrole-2-carboxamide]
IC50 [1]: 967 nM | IC50 [2]: 6900 nM | 24 hr Dox Inducible TNFaFLGluc 293FRT/TO: TNF/PD1 [2]: 7.13 | IC50 [3]: 1640 nM | IC50 [4]: 2170 nM | 24 hr Dox Inducible IL2FLGluc 293FRT/TO: IL2/PD1 [4]: 2.2 | EC50 [5]: 7810 nM | EC50 [6]: 15000 nM | Liver Microsome Stability (Multiple Species): Rat - % Remaining after 30 min w/NADPH [7]: 0.02% | Liver Microsome Stability (Multiple Species): Mouse - % Remaining after 30 min w/NADPH [8]: 0.08% | Liver Microsome Stability (Multiple Species): Human - % Remaining after 30 min w/NADPH [9]: 0.17% | Liver Microsome Stability (Multiple Species): Monkey - % Remaining after 30 min w/NADPH [10]: 0.11%

O=C(Nc1nc(/C=C/C2CCc3ccccc3N2)cs1)c1cccn1Cc1ccncc1 (stereo not drawn) [Compound B7, (E)-1-(pyridin-4-ylmethyl)-N-(4-(2-(1,2,3,4-tetrahydroquinolin-2-yl)vinyl)thiazol-2-yl)-1H-pyrrole-2-carboxamide]
IC50 [1]: 330 nM | IC50 [2]: 7870 nM | 24 hr Dox Inducible TNFaFLGluc 293FRT/TO: TNF/PD1 [2]: 23.9 | IC50 [3]: 800 nM | IC50 [4]: 1270 nM | 24 hr Dox Inducible IL2FLGluc 293FRT/TO: IL2/PD1 [4]: 3.8 | EC50 [5]: 21900 nM | EC50 [6]: 21400 nM | Liver Microsome Stability (Multiple Species): Rat - % Remaining after 30 min w/NADPH [7]: 2.33% | Liver Microsome Stability (Multiple Species): Mouse - % Remaining after 30 min w/NADPH [8]: 12.3% | Liver Microsome Stability (Multiple Species): Human - % Remaining after 30 min w/NADPH [9]: 1.32% | Liver Microsome Stability (Multiple Species): Monkey - % Remaining after 30 min w/NADPH [10]: 0.74%

CC(CC#N)n1cnc(/C=C/c2csc(NC(=O)c3cccn3Cc3ccnc(F)c3)n2)c1 (stereo not drawn) [Compound B110, (E)-N-(4-(2-(1-(1-cyanopropan-2-yl)-1H-imidazol-4-yl)vinyl)thiazol-2-yl)-1-((2-fluoropyridin-4-yl)methyl)-1H-pyrrole-2-carboxamide]
IC50 [1]: 2210 nM | IC50 [2]: > 25000 nM | 24 hr Dox Inducible TNFaFLGluc 293FRT/TO: TNF/PD1 [2]: >11.3 | IC50 [3]: > 25000 nM | IC50 [4]: > 25000 nM | 24 hr Dox Inducible IL2FLGluc 293FRT/TO: IL2/PD1 [4]: >11 | EC50 [5]: > 25000 nM | EC50 [6]: > 25000 nM | Liver Microsome Stability (Multiple Species): Rat - % Remaining after 30 min w/NADPH [7]: 32.4% | Liver Microsome Stability (Multiple Species): Mouse - % Remaining after 30 min w/NADPH [8]: 44.9% | Liver Microsome Stability (Multiple Species): Human - % Remaining after 30 min w/NADPH [9]: 0.38% | Liver Microsome Stability (Multiple Species): Monkey - % Remaining after 30 min w/NADPH [10]: 0.51%

O=C(Nc1nc([C@H]2CCCN2c2ccncc2)cs1)c1cccn1Cc1ccncc1 [Compound E48, (R)-N-(4-(1-(pyridin-4-yl)pyrrolidin-2-yl)thiazol-2-yl)-1-(pyridin-4-ylmethyl)-1H-pyrrole-2-carboxamide]
IC50 ([1]; mean): 7890 nM | IC50 ([2]; mean): > 25000 nM | 24 hr Dox Inducible TNFaFLGluc 293FRT/TO: TNF/PD1 [2, 11]: >3.17 | IC50 ([3]; mean): 13500 nM | IC50 ([4]; mean): 7830 nM | 24 hr Dox Inducible IL2FLGluc 293FRT/TO: IL2/PD1 [4, 11]: 0.99 | EC50 [5]: > 25000 nM | EC50 [6]: > 25000 nM | Liver Microsome Stability (Multiple Species): Rat - % Remaining after 30 min w/NADPH [7]: 0.45% | Liver Microsome Stability (Multiple Species): Mouse - % Remaining after 30 min w/NADPH [8]: 2.74% | Liver Microsome Stability (Multiple Species): Human - % Remaining after 30 min w/NADPH [9]: 0.93% | Liver Microsome Stability (Multiple Species): Monkey - % Remaining after 30 min w/NADPH [10]: 0.12%
